According to patent publication US20050014942A1, “Amide derivatives and drugs” (priority 2001, published 2005):
Counter-ions that a name gives are not always drawn.

Legend:
[1] = test system: collagen production induced by TGF-β (NHDF cells); test: Inhibitory effect on collagen production induced by TGF-β, [3H] proline uptake (NHDF cells); assay type: cell-based, human; details: Homo sapiens, NHDF, TGF-β1 3 ng/ml
Protocol: (§1) As an index of collagen production, the uptake of [^3H] proline was measured.
(§2) Using a 96-well microplate, normal human skin derived fibroblast (NHDF, 10^4/well) or human embryonic lung fibroblast (TIG-3, 10^4/well) were cultured in a 10% fetal calf serum (FCS)-containing Dulbecco's modified Eagle medium (DMEM) for one day. After removing the culture supernatant, the cells were washed once with a 0.1% bovine serum albumin (BSA)-containing DMEM medium and then cultured in the 0.1% bovine serum albumin (BSA)-containing DMEM medium for one day. After adding each of the test compounds in each concentration (1, 3, 10 μM), the cells were cultured and, after adding TGF-β1 (3 ng/ml) and [^3H] proline (18.5 kBq/well), the cells were further cultured for additional one day.
(§3) After removing the culture supernatant, the cells were washed twice with a phosphate buffer solution (PBS) and dissolved with 0.3M NaOH and 1% sodium dodecylsulfate (SDS), and then each protein fraction was precipitated with trichloroacetic acid (TCA) After the precipitate was filtered through a glass filter (GF/B) and washed, the quantity of [^3H] proline on the glass filter was measured by a liquid scintillation counter. The number of cells was measured by a cell growth measuring kit (XTT, Roche) and the uptake of [^3H] proline was corrected by the number of cells. Inhibitory ratio was calculated as compared with the case where a difference between the uptake of [^3H] proline with or without TGF-β1.

[2] = Measurement of concentration of compound in rat plasma; assay type: in vivo; details: oral 10 mg/kg; for concentration at 0.25 h: after 0.25 hours; for concentration at 1 h: after 1 hour; for concentration at 4 h: after 4 hours
Protocol: Each of the test compounds was dissolved or suspended in methyl cellulose and the resulting solution or suspension was orally administered to rats at a dosage of 10 mg/kg and blood was collected after 0.25 hours, 1 hour and 4 hours. The concentration in plasma in each of the compounds was measured by HPLC.

mice = test: Acute toxicity; assay type: in vivo; details: oral 1000 mg/kg, observed for a week after administration
Protocol: Each of the compounds in Examples 1, 9, 31, 120, and 121 was administered.

[3] = test system: collagen production induced by TGF-β (TIG-3 cells); test: Inhibitory effect on collagen production induced by TGF-β, [3H] proline uptake (TIG-3 cells); assay type: cell-based; details: Homo sapiens, TGF-β1 3 ng/ml
Protocol: as §1, §2, §3

| concentration at 0.25 h [2] [µg/mL] | concentration at 1 h [2] [µg/mL] | concentration at 4 h [2] [µg/mL] | SMILES | inhibition at 1 µM [1] [%] | inhibition at 3 µM [1] [%] | inhibition at 10 µM [1] [%] | Acute toxicity: deaths (mice) | inhibition at 3 µM [3] [%] | inhibition at 10 µM [3] [%] |
| --- | --- | --- | --- | --- | --- | --- | --- | --- | --- |
| 1.4 to 2.3 | 0.52 to 0.72 | 0.087 to 0.16 | Cc1ccc2c(c1)c(C(=O)N1CCN(c3cnc(C(=O)NCCc4scnc4C)cn3)CC1)c(-c1ccccc1)n2C [Example 5, 5-{4-[(1,5-dimethyl-2-phenyl-1H-indol-3-yl)carbonyl]piperazin-1-yl}-N-[2-(4-methyl-1,3-thiazol-5-yl)ethyl]pyrazine-2-carboxamide trihydrochloride] | 40 | 43 | 88 |  |  |  |
|  |  |  | COc1ccc(CNC(=O)/C=C/c2c(-c3ccccc3)n(C)c3ccccc23)cc1 [Example 2, (2E)-N-(4-methoxybenzyl)-3-(1-methyl-2-phenyl-1H-indol-3-yl)acrylamide] | 23 | 61 | 79 |  | 74 | 117 |
| 0.39 to 0.5 | 0.49 to 0.59 | 0.18 to 0.29 | CO[C@H]1Cc2ccccc2[C@H]1NC(=O)/C=C/c1c(-c2ccccc2)n(C)c2ncccc12 [Example 4, (2E)-N-[(1R,2S)-2-methoxy-2,3-dihydro-1H-inden-1-yl]-3-(1-methyl-2-phenyl-1H-pyrrolo[2,3-b]pyridin-3-yl)acrylamide hydrochloride] | 41 | 70 | 138 |  |  |  |
| 0.071 to 0.17 | 0.4 to 0.55 | 0.32 to 0.46 | CC1c2cc3c(cc2CCN1C(=O)/C=C/c1c(-c2ccccc2)n(C)c2ncccc12)OCO3 (centres unmarked) [Example 28, 5-methyl-6-[(2E)-3-(1-methyl-2-phenyl-1H-pyrrolo[2,3-b]pyridin-3-yl)prop-2-enoyl]-5,6,7,8-tetrahydro[1,3]dioxolo[4,5-g]isoquinoline hydrochloride] | 31 | 40 | 92 |  |  |  |
|  |  |  | Cc1ccc2c(c1)c(C(=O)N1CCN(c3ccc(C(=O)N(CCO)Cc4ccccc4)cn3)CC1)c(-c1ccccc1)n2C [Example 60, 6-{4-[(1,5-dimethyl-2-phenyl-1H-indol-3-yl)carbonyl]piperazin-1-yl}-N-(2-hydroxyethyl)-N-benzylnicotinamide hydrochloride] |  |  |  |  | 70 | 133 |
|  |  |  | Cc1ccc2c(c1)c(C(=O)N1CCN(c3cnc(C(=O)NCc4c(C)noc4C)cn3)CC1)c(-c1ccccc1)n2C [Example 32, 5-{4-[(1,5-dimethyl-2-phenyl-1H-indol-3-yl)carbonyl]piperazin-1-yl}-N-[(3,5-dimethylisoxazol-4-yl)methyl]pyrazine-2-carboxamide] |  |  |  |  | 62 | 117 |
|  |  |  | Cc1ccc2c(c1)c(C(=O)N1CCN(c3cnc(C(=O)NCCc4ccccn4)cn3)CC1)c(-c1ccccc1)n2C [Example 76, 5-{4-[(1,5-dimethyl-2-phenyl-1H-indol-3-yl)carbonyl]piperazin-1-yl}-N-[2-(2-pyridyl)ethyl]pyrazine-2-carboxamide] |  |  |  |  | 78 | 101 |
| 2.4 to 4.1 | 1.5 to 1.9 |  | Cc1ncsc1CCNC(=O)c1cnc(N2CCN(C(=O)c3c(-c4ccccc4)n(C)c4ncccc34)CC2)cn1 [Example 27, 5-{4-[(1-methyl-2-phenyl-1H-pyrrolo[2,3-b]pyridin-3-yl)carbonyl]piperazin-1-yl}-N-[2-(4-methyl-1,3-thiazol-5-yl)ethyl]pyrazine-2-carboxamide dihydrochloride] | 25 | 35 | 42 |  |  |  |
| 0.12 to 0.66 | 0.37 to 0.64 | 0.26 to 0.31 | COc1cc2c(cc1OC)C(C)N(C(=O)/C=C/c1c(-c3ccccc3)n(C)c3ncccc13)CC2 (centres unmarked) [Example 3, 6,7-dimethoxy-1-methyl-2-[(2E)-3-(1-methyl-2-phenyl-1H-pyrrolo[2,3-b]pyridin-3-yl)prop-2-enoyl]-1,2,3,4-tetrahydroisoquinoline hydrochloride] | 65 | 105 | 143 |  |  |  |
|  |  |  | Cc1ccc2c(c1)c(C(=O)N1CCN(c3cnc(C(=O)NCc4ccco4)cn3)CC1)c(-c1ccccc1)n2C [Example 15, 5-{4-[(1,5-dimethyl-2-phenyl-1H-indol-3-yl)carbonyl]piperazin-1-yl}-N-(2-furylmethyl)pyrazine-2-carboxamide] |  |  |  |  | 82 | 140 |
| 0 to 0.069 | 0.055 to 0.12 | 0.005 to 0.018 | Cc1ccc2c(c1)c(C(=O)N1CCN(c3ccccn3)CC1)c(-c1ccccc1)n2C [Compound A, 1-(1,5-dimethyl-2-phenylindol-3-ylcarbonyl)-4-(2-pyridyl)piperazine hydrochloride, reference compound] | 8 | 9 | 30 |  | 28 | 63 |
| 0.33 to 0.94 | 0.28 to 1.1 | 0.17 to 0.71 | Cn1c(-c2ccccc2)c(/C=C/C(=O)N2CCC(n3c(=O)[nH]c4ccccc43)CC2)c2cccnc21 [Example 29, 1-{1-[(2E)-3-(1-methyl-2-phenyl-1H-pyrrolo[2,3-b]pyridin-3-yl)prop-2-enoyl]piperidin-4-yl}-1,3-dihydro-2H-benzimidazol-2-one hydrochloride] | 64 | 72 | 123 |  |  |  |
|  |  |  | Cc1ccc2c(c1)c(C(=O)N1CCN(c3cnc(C(=O)NCCc4scnc4C)cn3)CC1)c(-c1ccccc1)n2C [Example 80, 5-{4-[(1,5-dimethyl-2-phenyl-1H-indol-3-yl)carbonyl]piperazin-1-yl}-N-[2-(4-methyl-1,3-thiazol-5-yl)ethyl]pyrazine-2-carboxamide] |  |  |  |  | 105 | 149 |

| SMILES | concentration at 0.25 h [2] [µg/mL] | concentration at 1 h [2] [µg/mL] | concentration at 4 h [2] [µg/mL] | inhibition at 1 µM [1] [%] | inhibition at 3 µM [1] [%] | inhibition at 10 µM [1] [%] | Acute toxicity: deaths (mice) | inhibition at 3 µM [3] [%] | inhibition at 10 µM [3] [%] |
| --- | --- | --- | --- | --- | --- | --- | --- | --- | --- |
| CC(=O)Nc1cnc(N2CCN(C(=O)c3c(-c4ccccc4)n(C)c4ccc(C)cc34)CC2)cn1 [Example 121, N-[5-{4-[(1,5-dimethyl-2-phenyl-1H-indol-3-yl)carbonyl]piperazin-1-yl}pyrazin-2-yl]acetamide] | 3.9 to 5.8 | 2.1 to 5.8 | 0.31 to 0.58 |  | 39 | 54 | no deaths were observed |  |  |
| Cc1ccc2c(c1)c(C(=O)N1CCN(c3ccc(C(=O)N(C)C)cn3)CC1)c(-c1ccccc1)n2C.Cl [Example 120, 6-{4-[(1,5-dimethyl-2-phenyl-1H-indol-3-yl)carbonyl]piperazin-1-yl}-N,N-dimethylnicotinamide hydrochloride] | 6.4 to 10 | 3.2 to 5.7 | 2.5 to 3.1 |  |  |  | no deaths were observed |  |  |
| Cc1ccc2c(c1)c(C(=O)N1CCN(c3ccc(-c4nnn(CCO)n4)cn3)CC1)c(-c1ccccc1)n2C.Cl [Example 9, 1,5-dimethyl-2-phenyl-3-[(4-{5-[2-(2-hydroxyethyl)-2H-tetrazol-5-yl]pyridin-2-yl}piperazin-1-yl)carbonyl]-1H-indole hydrochloride] | 1.3 to 3.9 | 0.72 to 2.2 | 0.35 to 0.53 |  |  |  | no deaths were observed | 42 | 71 |
